Here are results for 87 compounds from a melting point compilation (Tetko et al.; mined from patent text by program, amines drawn as free bases though some values may be those of a salt).

For orientation: melting point means the temperature, or range, at which the solid turns liquid.

Bounds are passed on as bounds.

The compound `CCCCOCCOc1ccc(-c2ccc3c(c2)C=C(C(=O)O)CCN3S(C)(=O)=O)cc1` showed a melting point of 208 to 210 °C. The compound `CCOC(=O)c1ncoc1-c1cc(OC)c(OC)c([N+](=O)[O-])c1` had a melting point of 109 to 110 °C.

Regarding `O=C(NCc1ccccc1Cl)c1cccnc1OCc1cccnc1`, the melting point fell in the range of 91 to 93 °C.

Regarding `CCC(=O)N(C)Cc1cccc2c1C(=O)N(C1CCC(=O)NC1=O)C2=O` (configuration not stated), the melting point was in the range of 206 to 208 °C. As to `COc1cc(COc2nn(-c3ccccc3)cc2CC2=NCCO2)ccc1OCc1nc(-c2ccco2)oc1C`, the melting point was in the range of 95 to 96 °C. In turn, `COC(CN1C(=O)CN=C(c2ccccc2)c2cc(Cl)ccc21)OC` showed a melting point of 117 to 119 °C. In turn, `COc1cc2c(cc1OC)C1=C(CC2)NC(=O)CC1` gave a melting point of 270 to 271 °C. With `Oc1cccc(-c2noc3cc(F)ccc23)c1`, the melting point fell in the range of 144 to 145 °C.

`O=S1(=O)N=Cc2cccc(Cl)c21` gave a melting point of 162 to 164 °C.

Regarding `O=C(Nc1ccc(F)cc1)N[C@H]1CCCN(C(=O)c2ccc(F)cc2)C1`, the melting point lay in the range of 228 to 231 °C.

`Cc1[nH]c2ccc([N+](=O)[O-])cc2c1Cn1ccnc1` displayed a melting point of 240 to 242 °C.

Consider `CC(C)CCC(=O)Nc1c(C(O)(C(F)(F)F)C(F)(F)F)ccc2ccccc12`, for which the melting point was in the range of 62 to 63 °C.

Consider `OCCc1nccn1CCCCc1ccc(OCc2coc(/C=C/c3ccc(Br)cc3)n2)cc1`, for which the melting point lay in the range of 149 to 150 °C. `CS(=O)(=O)c1ccc([C@@H](CC2CCCC2)C(=O)Nc2nc3ccccc3[nH]2)cc1` displayed a melting point of 230 to 232 °C. In turn, `COc1ccc(C(NCC(c2ccccc2)c2ccccc2)c2cccc(Nc3c(N)c(=O)c3=O)c2)cc1` (configuration not stated) yielded a melting point of 193 to 194 °C.

Take `CC(C)(C)N(O)CC(O)c1cc(F)c(N)c(Br)c1` (configuration not stated): the melting point fell in the range of 122 to 125 °C. For `CCc1cc(C(=O)c2ccccc2Cl)c(-n2c(CC)nnc2CNC(=O)c2ccc(Cl)c(Cl)c2)s1`, the melting point was in the range of 136 to 138 °C.

On to `CC(=O)OC1CSC(Oc2cccc(-c3cn(C)nc3C(F)(F)F)c2)C(OC(C)=O)C1OC(C)=O` (configuration not stated), for which the melting point lay within 131 to 133 °C.

For `CCOC(=O)Cn1nnc2cc(-c3ncc(C(F)(F)F)cc3Cl)ccc21`, the melting point fell in the range of 127 to 129 °C. As to `COc1ccc(C(=O)c2ccc3c(c2)CC(C(=O)O)C3)cc1` (configuration not stated), the melting point lay within 149 to 151 °C. On to `COc1ccccc1-n1c(C(S)c2ncnc3[nH]cnc23)nc2cccc(Cl)c2c1=O` (configuration not stated), for which the melting point stood at 237 °C. Regarding `CCn1ncc(OCc2ccc(OCOC)cc2)c(Br)c1=O`, the melting point fell in the range of 104 to 106 °C. As for `Nc1nc(-c2ccncc2)nc2c1c(Cl)nn2C1CCCC1`, the melting point was in the range of 132 to 134 °C.

Take `C=CCCNS(=O)(=O)CC(=O)C1=C(C)NC(C)=C(C(=O)OC(C)C)C1c1cccc([N+](=O)[O-])c1` (configuration not stated): the melting point was 137 to 140 °C. With `CN(Cc1ccccc1)C(=O)CCc1nc(-c2ccc(Cl)cc2)co1` the figure was 99 to 100 °C; with `CCCCCCCCC1C=CC(CCc2ccc(C(=O)O)o2)=C2N=C3CCCCC3=C21` (configuration not stated), 110 to 111 °C.

In turn, `CNc1cc(Oc2ccc3c(C(=O)O)cccc3c2)ncn1` registered a melting point of 267 to 268 °C. `CCOc1c(OC)cccc1-c1nc2ccc(C(=O)O)cc2c(=O)[nH]1` returned a melting point of 168 to 169 °C. The figure for `O=C(Nc1cc(Cl)ccc1OCc1nnn[nH]1)c1cc(-c2ccc(Cl)cc2)oc1C(F)(F)F` is 227 to 236 °C; for `Cc1ccccc1CC(C(=O)O)C(=O)O` it is 132 to 135 °C; for `Cn1nnnc1C(C=CC=O)=C(c1ccc(F)cc1)c1ccc(F)cc1` it is 156 to 158 °C.

As to `CCOc1nn(-c2ccccn2)cc1CCCOc1cccc(OC(C)(C)C(=O)O)c1`, the melting point was in the range of 99 to 101 °C.

Compound `CSC(=S)N1Cc2[nH]c3ccccc3c2CC1CCO` (configuration not stated) displayed a melting point of 166 to 167 °C. Take `CCCCCCCCOc1ccc(C(=O)Oc2ccc(C(=O)O)c(F)c2)cc1`: the melting point fell in the range of 147 to 148 °C. With `Cn1ncnc1COc1nn2c(-c3ccc(F)cc3)nncc2c1C(C)(C)C` the figure was 197 °C; with `N#CCCOc1ccc(OCCC#N)cc1`, 138 to 140 °C. In turn, `COc1ccc(-c2nc(-c3ccccc3)c(N(c3ccccc3)c3ccccc3)s2)cc1` displayed a melting point of 152 to 155 °C. As to `CNCCOc1ccc(C(=C(CCO)c2ccccc2)c2ccccc2)cc1`, the melting point was in the range of 134 to 139 °C. `COC[C@@H]1CCCN1S(=O)(=O)c1ccc(Cl)c(COc2cccc3c(-n4cccn4)cc(C)nc23)c1Cl` registered a melting point of 75 °C.

As for `Cn1cc(C(O)(c2ccc3c(cnn3C(=O)OC3CCC3)c2)C(F)(F)F)c2ccccc21` (configuration not stated), the melting point was in the range of 82 to 84 °C. The compound `O=[N+]([O-])c1ccccc1C#Cc1c(F)c(F)nc(F)c1F` returned a melting point of 109 to 110 °C. `Cc1oc2ccccc2c1C(=O)NCc1ccc2c(Br)c(O)ccc2c1` registered a melting point of 179 to 181 °C. As for `CCOC(=O)c1cnn2c(C3CC3)cc(-c3ccc(C(F)(F)F)cc3)cc12`, the melting point came out at 117 °C. Regarding `O=C(O)c1cccc2nc3ccc4[nH]ncc4c3nc12`, the melting point fell in the range of 305 to 310 °C. Take `CN(C)N=Cc1cc2c(cn1)[nH]c1ccccc12`: the melting point is 203 to 206 °C. The figure for `Cc1noc(NS(=O)(=O)c2ccc(NC(=O)CN)cc2-c2ccc(CC(C)C)cc2)c1C` is 135 to 138 °C; for `CC(C)(C)OC(=O)N1CCNC(C(=O)O)C1` (configuration not stated) it is 226 to 229 °C; for `COc1cc(OC)c2c(=O)[nH]c(-c3cc(C)c(OCCN4CCOCC4)c(C)c3)cc2n1` it is 212 to 213 °C. For `COC[C@H](C1CC1)n1cc(Cl)nc(Cl)c1=O`, the melting point lay within 110 to 111 °C. The figure for `CCOC(=O)/C=C/C(=O)N1C[C@H](NC(=O)OCc2ccccc2)C1=O` is 68 °C; for `COC(=O)c1ccc(-n2c(C)ccc2C#N)cc1` it is 118 to 119 °C; for `COc1nc(N)c(Cl)cc1C(=O)CCC1CCN(CC(C)(C)O)CC1` it is 108 °C. Regarding `Cn1cc(-c2cc3nccnc3[nH]2)c2cc(O)ccc21`, the melting point was in the range of 289 to 290 °C.

`COc1cccc(CCNC(=O)c2ccc3c(c2)C=CC(C)(C)O3)c1` had a melting point of 105 to 110 °C. The figure for `CON=Cc1cc(-n2c(=S)cc(C(F)(F)F)n(N)c2=O)c(F)cc1Cl` is 172 to 174 °C; for `C=C[C@H]1CC(C(=O)OC)=C[C@@H](OC(C)C)[C@@H]1NC(C)=O` it is 132 to 133 °C; for `O=C(c1cnc2ccccc2n1)N1CC2CC2(c2ccc(Cl)cc2)C1` (configuration not stated) it is 90 to 105 °C.

Take `CCOc1ccccc1OCC(O)CNCCNc1cnn(C)c(=O)c1Cl` (configuration not stated): the melting point was 120 °C. The figure for `COC(=O)[C@@]1(c2ccc3ccccc3c2)CC1(c1ccccc1)c1ccccc1` is 138 to 139 °C; for `CC(=O)OC1CC2(C)C(CCC2(Sc2ccccc2)Sc2ccccc2)C2CCC3=CC(=O)C=CC3(C)C12F` (configuration not stated) it is 180 to 184 °C; for `O=C(Nc1ncco1)C1c2ccccc2Oc2ccccc21` it is 232 to 235 °C. The compound `CCOCc1nc2c(N)nc3ccccc3c2n1NC(CC)CC` gave a melting point of 125 to 128 °C. Take `CCc1ccnc2cc(OC)c(O)cc12`: the melting point fell in the range of 200 to 202 °C. The figure for `CN(C(=O)Nc1ccccc1C=Cc1cc(C(C)(C)C)c(O)c(C(C)(C)C)c1)C1CCN(Cc2ccc(F)cc2)CC1` is 174 to 175 °C. `O=C(O)CN(C(=O)CN1C(=O)c2ccccc2C1=O)c1ccccc1` returned a melting point of 224 °C. On to `O=c1c2ccccc2nc(CCl)n1-c1cccc(Cl)c1`, for which the melting point is 202 to 205 °C. `CCOC(=O)C(C)(C)c1cn2nc(NCCCN3CCC(NC(c4ccccc4)c4ccccc4)CC3)ccc2n1` gave a melting point of 115 to 117 °C.

`O=[N+]([O-])c1cc2c(Cl)ncnc2s1` had a melting point of 112 °C. Turning to `COc1ccc(C=O)cc1-c1cccs1`, the melting point was 137 to 138 °C. For `N#Cc1ccc([C@@H]2[C@@H]3C(=O)N(Cc4ccc5c(c4)OCO5)C(=O)[C@@H]3[C@H]3CCCN32)cc1` (racemic), the melting point was in the range of 61 to 63 °C.

`CNC(=N[N+](=O)[O-])N(Cc1cnc(Cl)s1)C(=O)N1CCOCC1` showed a melting point of 130 to 131 °C.

In the case of `COC(=O)CCn1c(=O)n(CCN2CCN(c3cccc(C(F)(F)F)c3)CC2)c(=O)c2cscc21`, the melting point lay in the range of 87 to 88 °C.

`O=c1oc(=O)n(Cc2ccccc2)c2ncccc12` gave a melting point of 168 °C. `CC(C)c1cc(-c2ccc(F)cc2)n(-c2ncccn2)n1` registered a melting point of 102 to 103 °C. The compound `CN1CCC(CC(O)c2cc(-c3ccccc3)nc3ccccc23)CC1` (configuration not stated) showed a melting point of 208 °C. `c1ccc2c(c1)CC(CN1CCC(c3c[nH]c4ccccc34)CC1)C2` displayed a melting point of 146 to 147 °C. In the case of `COC(=O)C1CN(C(=O)COc2ccccc2)c2ccccc2CN1S(=O)(=O)c1ccc(OC)cc1` (configuration not stated), the melting point was 151 to 153 °C. For `CC(=O)OCCc1c([N+](=O)[O-])cc(OCc2ccccc2)c2ccccc12`, the melting point lay in the range of 82 to 87 °C.

Consider `N#CN=C1CCCN1C1=CC(CF)(CF)Oc2ccc(C(F)(F)C(F)(F)F)cc21`, for which the melting point fell in the range of 207 to 210 °C. `Cc1cc2cc(CN3CCCCCC3)cnc2cc1NC(=O)c1ccc(-c2ccc(Cl)cc2)cc1` had a melting point of 204 °C. As for `Nc1sccc1C(=O)c1cccc(C(F)(F)F)c1`, the melting point lay in the range of 143 to 145 °C. With `Cn1nc(-c2nc(C#N)c(N)nc2-c2ccccc2)ccc1=O` the figure was greater than 250 °C; with `NC(=S)NN=C(CNC(=O)Cc1ccccc1)c1ccccc1`, 170 to 172 °C. Regarding `CCCc1nc2c(N)nc(C)c(C)c2n1CCCS(=O)(=O)c1ccc(Cl)cc1`, the melting point fell in the range of 186 to 188 °C. The figure for `Cc1nn(C2=NNN(S)C2N)c2c1CCCC2` (configuration not stated) is 201 to 202 °C; for `CC(c1ccccc1)C(Br)C(=O)c1ccccc1` (configuration not stated) it is 69 to 71 °C; for `COc1ccc(NC2=NN(c3ccccc3)CC2)cc1` it is 153 to 154 °C.
